Source: PubChem BioAssay (NCI)
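Cultured in 96-well plates, cells were exposed to test compound for 48 hours across five concentrations. The concentration for 50% growth inhibition is given as GI50. The concentration for full growth arrest is given as TGI.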

Experiments:
Assay in all cases: DTP human tumour cell line panel, 48 h
MOLT-4 leukemia = tested on: MOLT-4 leukemia
NCI/ADR-RES ovarian = tested on: NCI/ADR-RES ovarian
EKVX NSCLC = tested on: EKVX NSCLC
K-562 leukemia = tested on: K-562 leukemia
UACC-257 melanoma = tested on: UACC-257 melanoma
A498 renal = tested on: A498 renal
OVCAR-5 ovarian = tested on: OVCAR-5 ovarian
COLO 205 colon = tested on: COLO 205 colon
MALME-3M melanoma = tested on: MALME-3M melanoma
ACHN renal = tested on: ACHN renal

**Q.** For `Cn1c(N2NC(=O)C(N=Nc3ccc(S(N)(=O)=O)cc3)C2=O)nc(-c2ccco2)c(C#N)c1=O` (stereo not given), which GI50 (MOLT-4 leukemia) is on record?
**A.** 9.27 µM

**Q.** And the TGI (MOLT-4 leukemia)?
**A.** 27.8 µM

**Q.** What about the GI50 (NCI/ADR-RES ovarian) of the same compound?
**A.** > 50 µM

**Q.** And the TGI (NCI/ADR-RES ovarian)?
**A.** > 50 µM

**Q.** What about the GI50 (EKVX NSCLC) of the same compound?
**A.** 35.7 µM

**Q.** What about the TGI (EKVX NSCLC) of the same compound?
**A.** > 50 µM

**Q.** What about the GI50 (K-562 leukemia) of the same compound?
**A.** 5.69 µM

**Q.** And the TGI (K-562 leukemia)?
**A.** 31.2 µM

**Q.** And the GI50 (UACC-257 melanoma)?
**A.** > 50 µM

**Q.** And the TGI (UACC-257 melanoma)?
**A.** > 50 µM

**Q.** And the GI50 (A498 renal)?
**A.** > 50 µM

**Q.** And the TGI (A498 renal)?
**A.** > 50 µM

**Q.** And the GI50 (OVCAR-5 ovarian)?
**A.** > 50 µM

**Q.** And the TGI (OVCAR-5 ovarian)?
**A.** > 50 µM

**Q.** And the GI50 (COLO 205 colon)?
**A.** 3.18 µM

**Q.** What about the TGI (COLO 205 colon) of the same compound?
**A.** 11.8 µM

**Q.** And the GI50 (MALME-3M melanoma)?
**A.** 0.0614 µM

**Q.** What about the TGI (MALME-3M melanoma) of the same compound?
**A.** 7.62 µM

**Q.** And the GI50 (ACHN renal)?
**A.** 15.6 µM

**Q.** And the TGI (ACHN renal)?
**A.** > 50 µM
